We go through three molecules from the NIST ThermoML archive (doi:10.1016/j.tca.2017.03.024).

± gives the expanded uncertainty stated by the source.

For the series the following is noted: Crystal; DTA.
`[Cl-].[Li+]` [lithium chloride]: the Normal melting temperature is 605 ± 1 °C.

Regarding `[Cl-].[K+]` [potassium chloride], the Normal melting temperature came to 772 ± 1 °C.

As for `[Cl][Pr]([Cl])[Cl]` [praseodymium(III) chloride], the Normal melting temperature is 778 ± 1 °C.
